According to patent US10000486B2 (priority 2012, dated 2018):
Counter-ions that a name gives are not always drawn.

Assays:
VSVg pseudotyped virus = test: organism not typed; type: cell-based; conditions: read-out: Activity (EC50 in μM vs. pseudotyped virus) VSVg
[1] = test system: Machupo pseudotyped virus; test: organism not typed; type: cell-based; conditions: read-out: Activity (EC50 in μM vs. pseudotyped virus) Machupo
[2] = test system: Lassa GP-pseudotyped-virus; test: microbe, parasite or virus in culture; type: cell-based, Lassa fever virus; conditions: Human immunodeficiency virus 1, read-out: Activity (EC50 in μM vs. pseudotyped virus) Lassa
Junín pseudotyped virus = test: organism not typed; type: cell-based; conditions: read-out: Activity (EC50 in μM vs. pseudotyped virus) Junín

Row | SMILES | EC50 (VSVg pseudotyped virus) | EC50 [1] | EC50 [2] | EC50 (Junín pseudotyped virus)
1 | CCOc1ccc(-n2cnc3cc(/C=C/c4ccc(CC)cc4)ccc32)cc1 [Compound 1, 1-(4-ethoxyphenyl)-5-[(E)-2-(4-ethylphenyl)vinyl]benzimidazole] | 10 to 50 µM | < 1 µM | < 1 µM | 
2 | COc1ccc(-n2cnc3cc(/C=C/c4ccc(C(C)C)cc4)ccc32)cc1 [Compound 3, 5-[(E)-2-(4-isopropylphenyl)vinyl]-1-(4-methoxyphenyl)benzimidazole] | 10 to 50 µM |  | 1 to 10 µM | 
3 | CCOc1ccc(-n2cnc3cc(/C=C/c4ccc(C(C)(C)C)cc4)ccc32)cc1 [Compound 4, 5-[(E)-2-(4-tert-butylphenyl)vinyl]-1-(4-ethoxyphenyl)-benzimidazole] | 10 to 50 µM |  | < 1 µM | 
4 | CC(C)Oc1ccc(-n2cnc3cc(/C=C/c4ccc(C(C)(C)C)cc4)ccc32)cc1 [Compound 6, 5-[(E)-2-(4-tert-butylphenyl)vinyl]-1-(4-isopropoxyphenyl)-benzimidazole] | 10 to 50 µM |  | < 1 µM | 
5 | CCc1ccc(/C=C/c2ccc3c(c2)ncn3-c2ccc(OC(C)C)cc2)cc1 [Compound 8, 5-[(E)-2-(4-ethylphenyl)vinyl]-1-(4-isopropoxyphenyl)-benzimidazole] | 10 to 50 µM | < 1 µM | < 1 µM | < 1 µM
6 | CCOc1ccc(-n2cnc3cc(/C=C/c4ccc(OC(F)(F)F)cc4)ccc32)cc1 [Compound 10, 1-(4-ethoxyphenyl)-5-[(E)-2-[4-(trifluoromethoxy)phenyl]vinyl]benzimidazole] | > 50 µM | 1 to 10 µM | < 1 µM | < 1 µM
7 | CCc1ccc(/C=C/c2ccc3c(c2)ncn3-c2ccc(OC(C)(C)C)cc2)cc1 [Compound 14, 1-(4-tert-butoxyphenyl)-5-[(E)-2-(4-ethylphenyl)-vinyl]benzimidazole] | 10 to 50 µM |  | 1 to 10 µM | 
8 | CC(C)(C)Oc1ccc(-n2cnc3cc(/C=C/c4ccc(C(C)(C)C)cc4)ccc32)cc1 [Compound 16, 1-(4-tert-butoxyphenyl)-5-[(E)-2-(4-tert-butylphenyl)vinyl]benzimidazole] | 10 to 50 µM |  | 1 to 10 µM | 
9 | CCOc1ccc(-n2cnc3cc(/C=C/c4ccc(CC)cc4)ccc32)nc1 [Compound 18, 1-(5-ethoxy-2-pyridyl)-5-[(E)-2-(4-ethylphenyl)vinyl]benzimidazole hydrochloride] | 10 to 50 µM |  | < 1 µM | 1 to 10 µM
10 | CCOc1ccc(-n2cnc3cc(/C=C/c4ccc(C(C)(C)C)cc4)ccc32)nc1 [Compound 20, 5-[(E)-2-(4-tert-butylphenyl)vinyl]-1-(5-ethoxy-2-pyridyl)benzimidazole hydrochloride] | 1 to 10 µM |  | < 1 µM | 
11 | CCOc1ccc(-n2cnc3cc(/C=C/c4ccc(CC)cc4)cnc32)cc1 [Compound 23, 3-(4-ethoxyphenyl)-6-[(E)-2-(4-ethylphenyl)vinyl]imidazo[4,5-b]pyridine] | > 50 µM |  | 1 to 10 µM | 
12 | COc1ccc(-n2cnc3cc(/C=C/c4ccc(C(C)C)cc4)cnc32)cc1 [Compound 25, 6-[(E)-2-(4-isopropylphenyl)vinyl]-3-(4-methoxyphenyl)imidazo[4,5-b]pyridine] | > 50 µM |  | 1 to 10 µM | 
13 | CCOc1ccc(-n2cnc3ccc(CCc4ccc(CC)cc4)cc32)cc1 [Compound 35, 1-(4-ethoxyphenyl)-6-[2-(4-ethylphenyl)-ethyl]benzimidazole] | 10 to 50 µM | < 1 µM | < 1 µM | 
14 | CCCCC(O)(CCCC)c1ccc(/C=C\c2ccc3c(c2)ncn3-c2ccc(OC(C)C)cc2)cc1 [Compound 41, 5-[4-[(Z)-2-[1-(4-isopropoxyphenyl)benzimidazol-5-yl]vinyl]phenyl]nonan-5-ol] | 10 to 50 µM | < 1 µM | < 1 µM | 
15 | CC(C)Oc1ccc(-n2cnc3cc(/C=C\c4ccc(C(C)(C)O)cc4)ccc32)nc1 [Compound 42, 2-[4-[(Z)-2-[1-(5-isopropoxy-2-pyridyl)benzimidazol-5-yl]vinyl]phenyl]propan-2-ol] | 1 to 10 µM | < 1 µM | < 1 µM | 
16 | CC(C)Oc1ccc(-n2cnc3cc(/C=C\c4ccc(C(C)(C)C(F)(F)F)cc4)ccc32)cc1 [Compound 43, 1-(4-isopropoxyphenyl)-5-[(Z)-2-[4-(2,2,2-trifluoro-1,1-dimethyl-ethyl)phenyl]vinyl]benzimidazole] | 1 to 10 µM | < 1 µM | < 1 µM | 
17 | CC(C)Oc1ccc(-n2cnc3cc(/C=C\c4ccc(CCC=O)cc4)ccc32)cc1 [Compound 44, 3-[4-[(Z)-2-[1-(4-isopropoxyphenyl)benzimidazol-5-yl]vinyl]phenyl]propanal] | 10 to 50 µM |  | < 1 µM | 
18 | CC(C)Oc1ccc(-n2cnc3cc(/C=C\c4ccc(C(C)(O)C(F)(F)F)cc4)ccc32)cc1 (stereo not drawn) [Compound 46, 1,1,1-trifluoro-2-[4-[(Z)-2-[1-(4-isopropoxyphenyl)benzimidazol-5-yl]vinyl]phenyl]propan-2-ol] | 1 to 10 µM | < 1 µM | < 1 µM | 
19 | CC(C)Oc1ccc(-n2cnc3cc(/C=C\c4ccc(C(O)(C(F)(F)F)C(F)(F)F)cc4)ccc32)cc1 [Compound 47, 1,1,1,3,3,3-hexafluoro-2-[4-[(Z)-2-[1-(4-isopropoxyphenyl)benzimidazol-5-yl]vinyl]phenyl]propan-2-ol] | 1 to 10 µM | < 1 µM | < 1 µM | 
20 | CC(C)Oc1ccc(-n2cnc3cc(/C=C\c4ccc(C#N)cc4)ccc32)cc1 [Compound 49, 4-[(Z)-2-[1-(4-isopropoxyphenyl)benzimidazol-5-yl]vinyl]benzonitrile] | 10 to 50 µM |  | < 1 µM | 
21 | CC(C)Oc1ccc(-n2cnc3cc(/C=C\c4ccc(C(C)(O)C(=O)O)cc4)ccc32)cc1 (stereo not drawn) [Compound 55, 2-hydroxy-2-[4-[(Z)-2-[1-(4-isopropoxyphenyl)benzimidazol-5-yl]vinyl]phenyl]propanoic acid] | > 50 µM |  | < 1 µM | 
22 | CC(C)Oc1ccc(-n2cnc3cc(/C=C\c4ccc(C5(O)CCCC5)cc4)ccc32)cc1 [Compound 56, 1-[4-[(Z)-2-[1-(4-isopropoxyphenyl)benzimidazol-5-yl]vinyl]phenyl]cyclopentanol] | 1 to 10 µM | < 1 µM | < 1 µM | 
23 | CC(C)Oc1ccc(-n2cnc3cc(/C=C\c4ccc(C5(O)CCCCC5)cc4)ccc32)cc1 [Compound 57, 1-[4-[(Z)-2-[1-(4-isopropoxyphenyl)benzimidazol-5-yl]vinyl]phenyl]cyclohexanol] | 1 to 10 µM | < 1 µM | < 1 µM | 
24 | CCOc1ccc(Cn2cnc3cc(NCc4ccc(CC)cc4)cnc32)cc1 [Compound 62, 3-[(4-ethoxyphenyl)methyl]-N-[(4-ethylphenyl)-methyl]imidazo[4,5-b]pyridin-6-amine] | 1 to 10 µM | 1 to 10 µM | 1 to 10 µM | 
25 | CCOc1ccc(-n2ccc3cc(NCc4ccc(CC)cc4)ccc32)cc1 [Compound 63, 1-(4-ethoxyphenyl)-N-[(4-ethylphenyl)-methyl]indol-5-amine] | 10 to 50 µM | < 1 µM | < 1 µM | 
26 | CCOc1ccc(-n2ccc3cc(NCc4ccc(CC)cc4)cnc32)cc1 [Compound 66, 1-(4-ethoxyphenyl)-N-[(4-ethylphenyl)-methyl]pyrrolo[2,3-b]pyridin-5-amine] | > 50 µM | 1 to 10 µM | < 1 µM | 
